Measured values published in patent US20250346616A1 (DIZAL (JIANGSU) PHARMACEUTICAL CO., LTD., priority 2022, published 2025).

Tests used:
[1] = tested on: pMLC2; test: Cellular PD assay, pMLC2 in PASMC (western blot); assay type: cell-based; details: PASMC, 0.5 h; Human Pulmonary Artery Smooth Muscle Cells, 30 min incubation
Experimental: (§1) PASMC (Human Pulmonary Artery Smooth Muscle Cells) were grown in Smooth Muscle Cell Growth medium (Promocell #C-22162). The cells were resuspended at 3×10^5 cells per well in 6-well plate in Smooth Muscle Cell Growth medium (Promocell #C-22162) and incubated compound concentration range: (10000/1111/333/111/37/12.3/4.1/0.41/0 nM) for 30 min.
(§2) Cells were then placed on ice and washed with ice-cold PBS. Cell lysates were prepared with 2×SDS. Separate proteins by SDS-PAGE 2 hr, transfer of proteins form gel to membrane 90 min, Blocking the membrane with 5% milk 1 hr and incubation in primary antibody overnight at 4° C., Incubate the membrane in HRP-conjugated secondary antibody diluted in blocking buffer (1:2000) for 1 hour at room temperature. Detection using Amersham ECL plus western blotting detection system (LAS4000). The purified product was analysed by SDS PAGE and the amount of target protein calculated by gray scanning by Multi-Gauge V3.0 software.

[2] = molecular target: Recombinant ROCK2 (Homo sapiens (Human), UniProt O75116); test: Lance Ultra Kinase Assay, ROCK2 inhibition; assay type: biochemical; details: ATP at Km, 30 min pre-incubation, 1 h reaction
Recombinant ROCK2, sequence (O75116 whole entry): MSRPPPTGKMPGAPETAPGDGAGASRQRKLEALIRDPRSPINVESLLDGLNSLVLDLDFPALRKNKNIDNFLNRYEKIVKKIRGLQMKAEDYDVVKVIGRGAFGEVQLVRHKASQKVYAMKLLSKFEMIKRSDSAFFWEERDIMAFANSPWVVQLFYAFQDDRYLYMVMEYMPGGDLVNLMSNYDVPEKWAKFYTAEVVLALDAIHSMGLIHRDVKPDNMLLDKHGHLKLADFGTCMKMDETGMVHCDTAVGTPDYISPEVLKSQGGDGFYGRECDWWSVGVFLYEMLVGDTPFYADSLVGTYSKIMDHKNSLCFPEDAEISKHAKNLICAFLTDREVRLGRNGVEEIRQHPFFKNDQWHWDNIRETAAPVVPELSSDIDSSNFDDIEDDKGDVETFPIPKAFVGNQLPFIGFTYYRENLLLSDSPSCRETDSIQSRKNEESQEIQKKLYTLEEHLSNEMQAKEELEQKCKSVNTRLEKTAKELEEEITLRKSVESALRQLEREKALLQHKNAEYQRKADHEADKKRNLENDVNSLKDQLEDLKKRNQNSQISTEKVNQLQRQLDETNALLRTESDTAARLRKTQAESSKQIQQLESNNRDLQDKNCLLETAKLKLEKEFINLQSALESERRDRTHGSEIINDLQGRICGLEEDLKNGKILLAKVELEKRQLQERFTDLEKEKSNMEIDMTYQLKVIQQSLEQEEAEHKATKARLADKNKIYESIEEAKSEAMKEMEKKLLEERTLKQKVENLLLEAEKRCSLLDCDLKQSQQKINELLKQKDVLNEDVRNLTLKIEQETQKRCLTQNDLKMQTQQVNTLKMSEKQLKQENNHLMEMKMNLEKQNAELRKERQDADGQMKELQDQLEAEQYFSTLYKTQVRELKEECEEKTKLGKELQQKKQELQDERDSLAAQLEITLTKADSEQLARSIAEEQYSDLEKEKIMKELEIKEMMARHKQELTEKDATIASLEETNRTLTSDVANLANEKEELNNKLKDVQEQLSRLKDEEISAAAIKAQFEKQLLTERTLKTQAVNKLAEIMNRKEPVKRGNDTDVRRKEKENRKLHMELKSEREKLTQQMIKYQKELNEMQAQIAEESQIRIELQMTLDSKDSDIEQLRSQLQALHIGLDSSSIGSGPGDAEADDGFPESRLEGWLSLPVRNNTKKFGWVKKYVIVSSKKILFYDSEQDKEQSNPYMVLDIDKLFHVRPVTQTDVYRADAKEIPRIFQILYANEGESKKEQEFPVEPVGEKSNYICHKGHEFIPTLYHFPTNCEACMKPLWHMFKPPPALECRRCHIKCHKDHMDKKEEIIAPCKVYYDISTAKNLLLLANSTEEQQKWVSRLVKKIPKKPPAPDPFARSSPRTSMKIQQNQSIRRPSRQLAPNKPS
Experimental: The inhibition potency of compounds against these enzymes was assessed using Lance Ultra Kinase Assay. In brief, recombinant kinases were pre-incubated in the presence or absence of compound at room temperature for 30 minutes. The reaction was initiated by the addition of the ATP (Km) and substrate peptide which could be phosphorylated by kinases in the reaction. After 1 h incubation, the reaction was stopped by the addition of the detection reagent mix containing EDTA. The fluorescence was measured at 615 nm and 665 nm, respectively with excitation wavelength at 320 nm. The calculated signal ratio of 665 nm/615 nm is proportional to the kinase activity.

[3] = tested on: pMYPT1; test: Cellular PD assay, pMYPT1 in PASMC (western blot); assay type: cell-based; details: PASMC, 0.5 h; Human Pulmonary Artery Smooth Muscle Cells, 30 min incubation
Experimental: as §1, §2

[4] = molecular target: Recombinant ROCK1 (Homo sapiens (Human), UniProt Q13464); test: Lance Ultra Kinase Assay, ROCK1 inhibition; assay type: biochemical; details: ATP at Km, 30 min pre-incubation, 1 h reaction
Recombinant ROCK1, sequence (Q13464 whole entry): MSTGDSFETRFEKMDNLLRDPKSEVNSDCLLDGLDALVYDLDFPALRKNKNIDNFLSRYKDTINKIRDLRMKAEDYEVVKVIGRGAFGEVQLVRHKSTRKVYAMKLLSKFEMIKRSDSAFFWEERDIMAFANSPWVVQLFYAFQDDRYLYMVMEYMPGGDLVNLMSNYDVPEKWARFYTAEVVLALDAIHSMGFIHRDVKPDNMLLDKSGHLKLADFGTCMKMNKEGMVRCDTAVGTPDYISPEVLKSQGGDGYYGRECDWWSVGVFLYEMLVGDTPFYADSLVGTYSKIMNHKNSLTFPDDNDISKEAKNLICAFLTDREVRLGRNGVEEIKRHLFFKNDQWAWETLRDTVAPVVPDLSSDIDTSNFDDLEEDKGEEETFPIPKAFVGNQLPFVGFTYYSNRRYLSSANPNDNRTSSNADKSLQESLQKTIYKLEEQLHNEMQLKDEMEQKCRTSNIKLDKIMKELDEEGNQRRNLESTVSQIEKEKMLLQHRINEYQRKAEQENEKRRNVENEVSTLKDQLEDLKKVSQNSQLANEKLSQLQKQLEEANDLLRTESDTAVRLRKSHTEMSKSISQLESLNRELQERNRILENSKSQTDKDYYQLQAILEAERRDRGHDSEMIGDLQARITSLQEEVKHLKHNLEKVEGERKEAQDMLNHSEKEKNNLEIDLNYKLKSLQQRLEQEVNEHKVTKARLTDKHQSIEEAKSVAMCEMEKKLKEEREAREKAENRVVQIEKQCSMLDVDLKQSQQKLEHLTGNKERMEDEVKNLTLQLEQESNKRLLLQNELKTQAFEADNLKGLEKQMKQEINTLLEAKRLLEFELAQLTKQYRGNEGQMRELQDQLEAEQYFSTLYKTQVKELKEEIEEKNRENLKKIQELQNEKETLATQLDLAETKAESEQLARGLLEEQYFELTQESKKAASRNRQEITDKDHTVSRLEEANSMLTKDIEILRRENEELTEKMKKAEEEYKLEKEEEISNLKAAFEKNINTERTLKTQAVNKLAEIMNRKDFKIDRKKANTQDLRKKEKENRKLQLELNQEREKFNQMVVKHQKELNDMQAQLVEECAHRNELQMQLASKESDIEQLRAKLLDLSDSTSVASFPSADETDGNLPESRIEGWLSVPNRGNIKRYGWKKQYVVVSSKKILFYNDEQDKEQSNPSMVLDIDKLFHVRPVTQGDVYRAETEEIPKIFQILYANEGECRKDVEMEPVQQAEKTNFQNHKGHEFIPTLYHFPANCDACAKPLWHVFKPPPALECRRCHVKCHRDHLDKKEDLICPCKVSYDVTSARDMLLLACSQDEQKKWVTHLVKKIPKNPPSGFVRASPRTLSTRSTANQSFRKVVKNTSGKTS

[5] = tested on: HepG2 cells; test: Cell-based phospholipidosis assay (LipidTOX Red); details: Homo sapiens, 24 h, LipidTOX Red dye
Experimental: HepG2 cells were dispensed into Collagen I-coated 96-well black wall/clear bottom assay plates at 5000 cells/90 μL/well.
The assay plates were then incubated at 37° C. for 24 h, […] of 8% paraformaldehyde (4% final) fixative solution containing 8 μg/ml Hoechst 33342 (4 ug/mL final) in DPBS was added to each well. After incubation at room temperature for 25 min, the assay plates were washed with DPBS. The assay plates were sealed and stored at 4° C. before imaging.
The fluorescence intensities (595 nm excitation, 615 nm emission for LipidTOX Red; 352 nm excitation, 461 nm emission for Hoechst 33342) were measured using an High Content Screening System (Operetta, PerkinElmer) with a 10×Fluor objective. […] Average intensities were subjected to Prism and EC50 were calculated.

Compound | IC50 [1] [nM] | IC50 [2] [nM] | IC50 [3] [nM] | IC50 [4] [nM] | EC50 [5] [µM]
NC[C@@H](C(=O)Nc1cccc2c(-c3cn[nH]c3)c[nH]c12)c1ccc(COC(=O)CCCCCO[N+](=O)[O-])cc1 [Example 10, [4-[(1S)-1-(aminomethyl)-2-oxo-2-[[3-(1H-pyrazol-4-yl)-1H-indol-7-yl]amino]ethyl]phenyl]methyl 6-nitrooxyhexanoate] | 8.1 |  | 10 | 1.6 | > 66.6
CN1CCN(CC(C(=O)Nc2cccc3c(-c4cn[nH]c4)c[nH]c23)c2ccccc2)CC1 (single isomer, unassigned) [Example 38, N-(3-(1H-pyrazol-4-yl)-1H-indol-7-yl)-3-(4-methylpiperazin-1-yl)-2-phenylpropanamide] | 8.2 | 0.26 | 13 | 0.44 | 6.23
NCCN1CCN(C(C(=O)Nc2cccc3c(-c4cn[nH]c4)c[nH]c23)c2ccccc2)CC1 (racemic) [Example 105, 2-[4-(2-aminoethyl)piperazin-1-yl]-2-phenyl-N-[3-(1H-pyrazol-4-yl)-1H-indol-7-yl]acetamide] | 95 | 0.22 |  | 0.42 | 23.6
NCC(C(=O)Nc1cccc2c(-c3cn[nH]c3)c[nH]c12)C1CCCOC1 (stereo not drawn) [Example 91, 3-amino-2-(oxan-3-yl)-N-[3-(1H-pyrazol-4-yl)-1H-indol-7-yl]propanamide] |  | 0.75 |  | 1.2 | 24.4
NCC(C(=O)Nc1cccc2c(-c3cn[nH]c3)c[nH]c12)c1ccc(C(N)=O)cc1 (racemic) [Example 74, 4-(1-((3-(1H-pyrazol-4-yl)-1H-indol-7-yl)amino)-3-amino-1-oxopropan-2-yl)benzamide] |  | 0.62 |  | 2 | > 200

Continued by falling IC50 [4], values first:

IC50 [1] [nM] | IC50 [2] [nM] | IC50 [3] [nM] | IC50 [4] [nM] | Compound | EC50 [5] [µM]
38 | 1.3 | 41 | 2.8 | N#Cc1cccc(C(CN)C(=O)Nc2cccc3c(-c4cn[nH]c4)c[nH]c23)c1 (single isomer, unassigned) [Example 20, N-(3-(1H-pyrazol-4-yl)-1H-indol-7-yl)-3-amino-2-(3-cyanophenyl)propanamide] | > 200
 | 0.7 |  | 2.3 | NCC(C(=O)Nc1cccc2c(-c3cn[nH]c3)c[nH]c12)c1ccc(CO)nc1 (single isomer, unassigned) [Example 60, N-(3-(1H-pyrazol-4-yl)-1H-indol-7-yl)-3-amino-2-(6-(hydroxymethyl)pyridin-3-yl)propanamide] | > 50
 | 0.92 |  | 2.2 | N#Cc1cccc(C(CN)C(=O)Nc2cccc3c(-c4cn[nH]c4)c[nH]c23)c1 (racemic) [Example 19, N-(3-(1H-pyrazol-4-yl)-1H-indol-7-yl)-3-amino-2-(3-cyanophenyl)propanamide] | > 50
31 | 0.48 |  | 1.2 | NCC(C(=O)Nc1cccc2c(-c3cn[nH]c3)c[nH]c12)c1cccnc1 (racemic) [Example 31, N-(3-(1H-pyrazol-4-yl)-1H-indol-7-yl)-3-amino-2-(pyridin-3-yl)propanamide] | > 50
 | 0.65 |  | 0.86 | CNC(=O)OCc1cccc(C(CN)C(=O)Nc2cccc3c(-c4cn[nH]c4)c[nH]c23)c1 (racemic) [Example 49, 3-(1-((3-(1H-pyrazol-4-yl)-1H-indol-7-yl)amino)-3-amino-1-oxopropan-2-yl)benzyl methylcarbamate] | > 200
42 | 0.24 | 62 | 0.55 | NCC(C(=O)Nc1cccc2c(-c3cn[nH]c3)c[nH]c12)c1cccnc1 (single isomer, unassigned) [Example 32, N-(3-(1H-pyrazol-4-yl)-1H-indol-7-yl)-3-amino-2-(pyridin-3-yl)propanamide] | > 200
